Values after ≈ are worked out from the molar mass of the structure shown. Like-named read-outs stand apart in the source and are kept apart here.
Assays:
Format in all cases: cell-based
[1] = system: Haemophilus influenzae 1218; experiment: MIC, microtiter broth dilution (NCCLS M100-S14), H. influenzae 1218 (susceptible)
Procedure, shortened: (§1)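 Antibacterial activity is expressed as the MIC from broth microdilution. Reading follows the NCCLS M100-S14 performance standards, and stocks are made in DMSO at 40 mg/ml.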

[2] = system: Streptococcus pneumoniae 1175; settings: microtiter broth dilution
Procedure, shortened: as §1

[3] = system: Streptococcus pneumoniae 1095; settings: microtiter broth dilution
Procedure, shortened: as §1

[4] = system: Streptococcus pyogenes 1079; experiment: MIC, microtiter broth dilution (NCCLS M100-S14), S. pyogenes 1079 (ermB)
Procedure, shortened: as §1

[5] = system: Streptococcus pneumoniae 1016; experiment: MIC, microtiter broth dilution (NCCLS M100-S14), S. pneumoniae 1016 (susceptible)
Procedure, shortened: as §1

[6] = H. influenzae 1218 (susceptible)
[7] = S. pneumoniae 1016 (susceptible)

Structure (SMILES) | MIC H. influenzae 1218 [1, 6] | MIC S. pneumo. 1175 ([2]; S. pneumoniae 1175 (mefA)) | MIC S. pneumo. 1095 ([3]; S. pneumoniae 1095 (ermB)) | MIC S. pyogenes 1079 ([4]; S. pyogenes 1079 (ermB)) | MIC S. pneumo. 1016 [5, 7] | MIC H. influenzae 1218 ([1]; Haemophilus influenzae 1218) | MIC S. pneumo. 1175 ([2]; Streptococcus pneumoniae 1175) | MIC S. pneumo. 1095 ([3]; Streptococcus pneumoniae 1095) | MIC S. pyogenes 1079 ([4]; Streptococcus pyogenes 1079) | MIC S. pneumo. 1016 ([5]; Streptococcus pneumoniae 1016)
CCC1OC(=O)C(C)C(=O)C(C)C(OC2OC(C)CC(N(C)C)C2O)C(C)(OC)CC(C)C(=O)C(C)C2N(CC3CCCN3C(=O)c3cc4cnccc4nc3C)C(=O)OC12C (stereo not shown) [10.41] | 2 µg/mL (≈ 2.31 µM) | <0.06 µg/mL | <0.06 µg/mL | >64.00 µg/mL | <0.06 µg/mL |  |  |  |  | 
CC[C@H]1OC(=O)[C@H](C)C(=O)[C@H](C)[C@@H](O[C@@H]2O[C@H](C)C[C@H](N(C)C)[C@H]2O)[C@](C)(OC)C[C@@H](C)C(=O)[C@H](C)[C@H]2N(C3CCN(Cc4cccc5[nH]cnc45)C3)C(=O)O[C@]12C.O=CO (stereo partly shown) [Example 8.01, (1H-benzo[d]imidazo-4-yl)methyl] | 8 µg/mL | 0.25 µg/mL | >64.00 µg/mL | >64.00 µg/mL | <0.06 µg/mL |  |  |  |  | 
CCC1OC(=O)C(C)C(=O)C(C)C(OC2OC(C)CC(N(C)C)C2O)C(C)(OC)CC(C)C(=O)C(C)C2N(CC3CCCN3C(=O)c3ccc4cnccc4n3)C(=O)OC12C (stereo not shown) [10.49] | 8 µg/mL (≈ 9.39 µM) | 2 µg/mL (≈ 2.35 µM) | 2 µg/mL (≈ 2.35 µM) | >64.00 µg/mL | <0.06 µg/mL |  |  |  |  | 
CC[C@H]1OC(=O)[C@H](C)C(=O)[C@H](C)[C@@H](O[C@@H]2O[C@H](C)C[C@H](N(C)C)[C@H]2O)[C@](C)(OC)C[C@@H](C)C(=O)[C@H](C)[C@H]2N(CC3(C)CN(Cc4nc5ccccc5[nH]4)C3)C(=O)O[C@]12C.O=CO [6.11] | 1 µg/mL | <0.06 µg/mL | 0.25 µg/mL | >64.00 µg/mL | <0.06 µg/mL |  |  |  |  | 
CCC1OC(=O)C(C)C(=O)C(C)C(OC2OC(C)CC(N(C)C)C2O)C(C)(OC)CC(C)C(=O)C(C)C2N(C3CN(S(=O)(=O)c4ccc(-n5ccnc5)c(F)c4)C3)C(=O)OC12C (stereo not shown) [Example 3.81, 3-descladinosyl-11,12-dideoxy-4-O-methyl-3-oxo-12,11-(oxycarbonyl-(1-(3-fluoro-4-(1H-imidazol-1-yl)benzenesulfonyl)-azetidin-3-yl)-imino)-erythromycin A] |  |  |  |  |  | 1 µg/mL (≈ 1.12 µM) | <0.06 µg/mL | <0.06 µg/mL | 4 µg/mL (≈ 4.48 µM) | <0.06 µg/mL
CCC1OC(=O)C(C)C(=O)C(C)C(OC2OC(C)CC(N(C)C)C2O)C(C)(OC)CC(C)C(=O)C(C)C2N(C3CN(S(=O)(=O)c4ccc(-c5nnn(C)n5)cc4)C3)C(=O)OC12C (stereo not shown) [Example 3.51, 3-descladinosyl-11,12-dideoxy-6-O-methyl-3-oxo-12,11-(oxycarbonyl-(1-(4-(2-methyl-2H-tetrazol-5-yl)benzenesulfonyl)-azetidin-3-yl)-imino)-erythromycin A] |  |  |  |  |  | 2 µg/mL (≈ 2.25 µM) | <0.06 µg/mL | <0.06 µg/mL | 0.5 µg/mL (≈ 0.562 µM) | <0.06 µg/mL
CCC1OC(=O)C(C)C(=O)C(C)C(OC2OC(C)CC(N(C)C)C2O)C(C)(OC)CC(C)C(=O)C(C)C2N(CC3CCN(Cc4c[nH]c(-c5ccccc5)n4)C3)C(=O)OC12C (stereo not shown) [13.08] | 2 µg/mL (≈ 2.35 µM) | 0.5 µg/mL (≈ 0.587 µM) | 4 µg/mL (≈ 4.69 µM) | 64 µg/mL (≈ 75.1 µM) | <0.06 µg/mL |  |  |  |  | 
CCC1OC(=O)C(C)C(=O)C(C)C(OC2OC(C)CC(N(C)C)C2O)C(C)(OC)CC(C)C(=O)C(C)C2N(C3CN(Cc4ccn[nH]4)C3)C(=O)OC12C (stereo not shown) [Example 1.18, (1H-pyrazol-5-yl)methyl] |  |  |  |  |  | 0.25 µg/mL (≈ 0.334 µM) | 2 µg/mL (≈ 2.67 µM) | 1 µg/mL (≈ 1.34 µM) | >64.00 µg/mL | <0.06 µg/mL

Reference: US7462600B2, “Macrolides” (Pfizer Inc, priority 2004, dated 2008)
